Source: publication PMC4522678, “Adaptation of the human aryl hydrocarbon receptor to sense microbiota-derived indoles” (Scientific Reports, 2015)

Tests used:
chimpanzee AHR [1] = molecular target: T1, chimpanzee AHR (Pan troglodytes, UniProt K7AJA4); assay: gel shift (EMSA) of in vitro translated AHR/ARNT, […] indole; type: cell-based
T1 construct: in vitro translated chimpanzee AHR; with ARNT
T1 sequence (K7AJA4 1-850): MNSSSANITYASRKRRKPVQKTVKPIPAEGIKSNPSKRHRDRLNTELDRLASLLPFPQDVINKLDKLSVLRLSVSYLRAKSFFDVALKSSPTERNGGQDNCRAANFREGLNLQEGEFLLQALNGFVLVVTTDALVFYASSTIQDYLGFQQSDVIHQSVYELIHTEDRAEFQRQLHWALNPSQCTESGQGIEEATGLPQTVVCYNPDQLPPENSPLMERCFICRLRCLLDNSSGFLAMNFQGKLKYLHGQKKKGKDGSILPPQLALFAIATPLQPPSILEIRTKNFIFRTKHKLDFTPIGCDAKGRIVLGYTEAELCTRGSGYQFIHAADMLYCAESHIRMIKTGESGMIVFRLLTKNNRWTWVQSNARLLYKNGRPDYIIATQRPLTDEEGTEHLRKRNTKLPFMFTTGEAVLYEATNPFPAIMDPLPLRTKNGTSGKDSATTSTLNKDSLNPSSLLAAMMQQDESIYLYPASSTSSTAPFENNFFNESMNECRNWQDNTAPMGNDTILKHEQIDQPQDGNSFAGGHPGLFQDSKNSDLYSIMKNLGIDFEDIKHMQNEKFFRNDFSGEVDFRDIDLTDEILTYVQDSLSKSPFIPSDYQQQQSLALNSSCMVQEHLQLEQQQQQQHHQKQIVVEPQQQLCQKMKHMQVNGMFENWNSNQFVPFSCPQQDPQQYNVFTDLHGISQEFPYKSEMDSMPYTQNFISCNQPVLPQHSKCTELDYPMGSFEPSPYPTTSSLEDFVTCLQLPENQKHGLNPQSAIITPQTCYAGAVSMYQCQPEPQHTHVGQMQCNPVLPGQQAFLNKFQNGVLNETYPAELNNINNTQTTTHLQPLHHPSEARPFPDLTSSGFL

[2] = molecular target: T2, human aryl hydrocarbon receptor (AHR) (Homo sapiens, UniProt P35869); assay: competition with radioiodinated photoaffinity ligand in hAHR liver cytosol; also gel shift with in vitro translated hAHR/ARNT; set-up: human AHR transgene expressed in mouse liver (hepatic cytosol)
Target sequence in this assay (P35869 11-848): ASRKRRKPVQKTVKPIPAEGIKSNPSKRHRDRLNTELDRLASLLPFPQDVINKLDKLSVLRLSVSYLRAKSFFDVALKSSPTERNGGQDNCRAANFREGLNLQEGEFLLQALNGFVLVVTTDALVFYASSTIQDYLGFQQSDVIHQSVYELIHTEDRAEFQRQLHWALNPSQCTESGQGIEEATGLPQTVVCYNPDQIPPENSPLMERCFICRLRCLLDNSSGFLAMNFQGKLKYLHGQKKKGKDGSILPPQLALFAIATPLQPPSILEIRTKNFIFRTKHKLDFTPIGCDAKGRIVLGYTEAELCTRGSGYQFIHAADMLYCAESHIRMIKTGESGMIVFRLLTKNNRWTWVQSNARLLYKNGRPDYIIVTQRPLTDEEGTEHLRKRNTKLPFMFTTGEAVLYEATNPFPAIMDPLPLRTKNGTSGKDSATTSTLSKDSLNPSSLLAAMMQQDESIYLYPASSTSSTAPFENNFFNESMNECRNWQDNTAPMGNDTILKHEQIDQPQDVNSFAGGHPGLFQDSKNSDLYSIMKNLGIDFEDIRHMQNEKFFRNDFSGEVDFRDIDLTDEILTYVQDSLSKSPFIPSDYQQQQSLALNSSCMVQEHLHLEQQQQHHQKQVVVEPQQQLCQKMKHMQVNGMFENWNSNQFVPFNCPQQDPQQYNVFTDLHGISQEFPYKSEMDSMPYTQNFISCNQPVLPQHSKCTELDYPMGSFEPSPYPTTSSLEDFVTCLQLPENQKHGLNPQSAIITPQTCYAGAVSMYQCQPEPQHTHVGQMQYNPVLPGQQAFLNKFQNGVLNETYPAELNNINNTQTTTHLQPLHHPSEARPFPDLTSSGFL

[3] = molecular target: T2, human aryl hydrocarbon receptor (AHR); assay: gel shift (EMSA) of in vitro translated AHR/ARNT; HepG2 reporter; type: cell-based; set-up: in vitro translated human AHR; with ARNT
Target sequence in this assay (P35869 11-848): as above
Target sequence in this assay (P27540 2-789 partner): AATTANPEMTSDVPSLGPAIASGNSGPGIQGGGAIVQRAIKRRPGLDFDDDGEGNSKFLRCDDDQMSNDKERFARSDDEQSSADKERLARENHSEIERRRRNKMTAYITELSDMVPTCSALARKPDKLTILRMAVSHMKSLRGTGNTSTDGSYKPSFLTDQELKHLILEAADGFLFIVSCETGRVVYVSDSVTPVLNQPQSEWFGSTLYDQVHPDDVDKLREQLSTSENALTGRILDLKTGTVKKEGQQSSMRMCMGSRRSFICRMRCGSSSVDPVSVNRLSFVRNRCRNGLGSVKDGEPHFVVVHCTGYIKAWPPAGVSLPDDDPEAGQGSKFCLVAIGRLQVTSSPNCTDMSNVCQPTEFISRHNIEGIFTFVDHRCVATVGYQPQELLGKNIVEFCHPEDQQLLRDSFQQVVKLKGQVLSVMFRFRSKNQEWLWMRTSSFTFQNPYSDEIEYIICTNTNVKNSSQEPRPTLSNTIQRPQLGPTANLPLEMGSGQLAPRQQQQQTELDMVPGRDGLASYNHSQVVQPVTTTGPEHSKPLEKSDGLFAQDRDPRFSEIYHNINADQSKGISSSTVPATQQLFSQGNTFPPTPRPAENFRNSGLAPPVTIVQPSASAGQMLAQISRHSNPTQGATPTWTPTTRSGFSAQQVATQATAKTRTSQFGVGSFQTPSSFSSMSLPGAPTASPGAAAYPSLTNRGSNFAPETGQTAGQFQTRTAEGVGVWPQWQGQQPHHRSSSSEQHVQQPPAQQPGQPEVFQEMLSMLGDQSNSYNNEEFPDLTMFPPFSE

chimpanzee AHR [4] = molecular target: T1, chimpanzee AHR; assay: gel shift (EMSA) of in vitro translated AHR/ARNT, […] TCDD; type: cell-based

SMILES: c1ccc2[nH]ccc2c1 [indole]
- gel shift (EMSA) of in vitro translated AHR/ARNT, 20 μM indole (chimpanzee AHR [1]): revealed chimpanzee AHR to be sensitive to both TCDD and indole-mediated activation
- competition with radioiodinated photoaffinity ligand in hAHR liver cytosol; also [2]: dose-dependent decrease in PAL binding consistent with indole being a competitor and direct ligand for the human AHR

SMILES: Cc1c[nH]c2ccccc12 [3-MI, 3-methyl indole]
- gel shift (EMSA) of in vitro translated AHR/ARNT; HepG2 reporter [3]: 3-methyl indole, like indole was associated with enhanced binding of AHR/ARNT to its cognate response element

SMILES: Clc1cc2c(cc1Cl)Oc1cc(Cl)c(Cl)cc1O2 [TCDD]
- gel shift (EMSA) of in vitro translated AHR/ARNT, 10 nM TCDD (chimpanzee AHR [4]): revealed chimpanzee AHR to be sensitive to both TCDD and indole-mediated activation
